# Strand notation (5' to 3'): a small letter for the sugar, then the base; units joined by * are phosphorothioate-linked, units joined directly phosphodiester-linked; [ ] holds rarer units or linkages, { } end groups; capitals alone tell only the bases. e = 2'-O-(2-methoxyethyl) (MOE); [5mC] = 5-methylcytosine; d = 2'-deoxy (DNA)
# Experiments:
# Assay type in all cases: cell-based
# [1] = test system: human Factor 11 mRNA; assay: Antisense inhibition of human Factor 11 in HepG2 cells, lipofectin, 75 nM (Example 1); settings: 75 nM antisense oligonucleotide, ~24 h, relative to untreated control cells, gapmers targeted to SEQ ID NO: 1
# Description: Antisense oligonucleotides targeted to a Factor 11 nucleic acid were tested for their effects on Factor 11 mRNA in vitro. Cultured HepG2 cells at a density of 10,000 cells per well were transfected using lipofectin reagent with 75 nM antisense oligonucleotide. After a treatment period of approximately 24 hours, RNA was isolated from the cells and Factor 11 mRNA levels were measured by quantitative real time PCR. Factor 11 mRNA levels were adjusted according to total RNA content, as measured by RIBOGREEN. Results are presented as percent inhibition of Factor 11, relative to untreated control cells.
# The chimeric antisense oligonucleotides in Tables 1 and 2 were designed as 5-10-5 MOE gapmers. The gapmers are 20 nucleotides in length, wherein the central gap segment is comprised of 10 2′-deoxynucleotides and is flanked on both sides (in the 5′ and 3′ directions) by wings comprising 5 nucleotides each. Each nucleotide in the 5′ wing segment and each nucleotide in the 3′ wing segment has a 2′-MOE modification. The internucleoside linkages throughout each gapmer are phosphorothioate (P=S) linkages. All cytidine residues throughout each gapmer are 5-methylcytidines. “Target start site” indicates the 5′-most nucleotide to which the gapmer is targeted. “Target stop site” indicates the 3′-most nucleotide to which the gapmer is targeted. Each gapmer listed in Table 1 is targeted to SEQ TD NO: 1 (GENBANK Accession No. NM_000128.3) and each gapmer listed in Table 2 is targeted to SEQ TD NO: 2 (GENBANK Accession No. NT_022792.17, truncated from 19598000 to 19624000).
# [2] = test system: human Factor 11 mRNA; assay: Dose-dependent inhibition of human Factor 11 in HepG2 cells, electroporation 0.7-20 uM (Example 4); settings: for percent inhibition of Factor 11 at 0.7 μM / percent inhibition of Factor 11 at 2.2 μM / percent inhibition of Factor 11 at 6.7 μM / percent inhibition of Factor 11 at 20 μM: relative to untreated control cells
# Description: (§1) The gapmers were also transfected via electroporation and their dose dependent inhibition of human Factor 11 mRNA was measured. Cells were plated at a density of 20,000 cells per well and transfected via electroporation with 0.7 μM, 2.2 μM, 6.7 μM, and 20 μM concentrations of antisense oligonucleotide, as specified in Table 10. After a treatment period of approximately 16 hours, RNA was isolated from the cells and Factor 11 mRNA levels were measured by quantitative real-time PCR. Human Factor 11 primer probe set RTS 2966 was used to measure mRNA levels. Factor 11 mRNA levels were adjusted according to total RNA content, as measured by RIBOGREEN. Results are presented as percent inhibition of Factor 11, relative to untreated control cells.
# [3] = test system: human Factor 11 mRNA; assay: Antisense inhibition of human Factor 11 in HepG2 cells by microwalk gapmers, lipofectin, 75 nM (Example 3); settings: HepG2 cells, lipofectin
# In short: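 HepG2 cells (10,000/well) were transfected via lipofectin with 75 nM 20-mer MOE gapmers (phosphorothioate, 5-methyl-C) for about 24 h. Factor 11 mRNA was measured by qRT-PCR, normalized to RIBOGREEN total RNA, and given as percent inhibition versus untreated cells.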
# [4] = test system: human Factor 11 mRNA; assay: Dose-dependent inhibition of human Factor 11 in HepG2 cells, lipofectin 9.375-75 nM (Example 4); settings: for percent inhibition of Factor 11 at 9.375 nM / percent inhibition of Factor 11 at 18.75 nM / percent inhibition of Factor 11 at 37.5 nM / percent inhibition of Factor 11 at 75 nM: relative to untreated control cells
# Description: as §1, with “Cells” for “The gapmers were also transfected via electroporation and their dose dependent inhibition of human Factor 11 mRNA was measured. Cells”, “10,000” for “20,000”, “using lipofectin reagent” for “via electroporation”, “9.375 nM, 18.75 nM, 37.5 nM” for “0.7 μM, 2.2 μM, 6.7 μM,”, “75 nM” for “20 μM”, “9.” for “10.”
# [5] = gapmers targeted to nucleobases 1062 to 1091 of SEQ ID NO: 1
substance,measurement,setting,value
412187 (antisense eT*eT*e[5mC]*eA*eA*dA*d[5mC]*dA*dA*dG*dT*dG*dA*d[5mC]*dA*eT*eA*e[5mC]*eA*e[5mC]) [compound 412187],% inhibition,[1],21%
412188 (antisense eT*eG*eA*eG*eA*dG*dA*dA*dT*dT*dG*d[5mC]*dT*dT*dG*e[5mC]*eT*eT*eT*e[5mC]) [compound 412188],% inhibition,[1],21%
412189 (antisense eA*eA*eA*eT*eA*dT*dA*d[5mC]*d[5mC]*dT*dT*dG*dA*dG*dA*eG*eA*eA*eT*eT) [compound 412189],% inhibition,[1],8%
412190 (antisense eA*eG*eT*eA*eT*dG*dT*d[5mC]*dA*dG*dA*dA*dA*dT*dA*eT*eA*e[5mC]*e[5mC]*eT) [compound 412190],% inhibition,[1],24%
412191 (antisense eT*eT*eA*eA*eA*dA*dT*d[5mC]*dT*dT*dA*dG*dT*dA*dT*eG*eT*e[5mC]*eA*eG) [compound 412191],% inhibition,[1],14%
412192 (antisense e[5mC]*eA*eG*e[5mC]*eA*dT*dA*dT*dT*dT*dG*dT*dG*dA*dA*eA*eG*eT*e[5mC]*eG) [compound 412192],% inhibition,[1],44%
412193 (antisense eT*eG*eT*eG*eT*dA*dG*dG*dA*dA*dA*dT*dG*dG*dT*e[5mC]*eA*e[5mC]*eT*eT) [compound 412193],% inhibition,[1],38%
412194 (antisense eT*eG*e[5mC]*eA*eA*dT*dT*d[5mC]*dT*dT*dA*dA*dT*dA*dA*eG*eG*eG*eT*eG) [compound 412194],% inhibition,[1],80%
412195 (antisense eA*eA*eA*eT*e[5mC]*dA*dT*d[5mC]*d[5mC]*dT*dG*dA*dA*dA*dA*eG*eA*e[5mC]*e[5mC]*eT) [compound 412195],% inhibition,[1],22%
412196 (antisense eT*eG*eA*eT*eA*dT*dA*dA*dG*dA*dA*dA*dA*dT*d[5mC]*eA*eT*e[5mC]*e[5mC]*eT) [compound 412196],% inhibition,[1],25%
412197 (antisense eA*e[5mC]*eA*e[5mC]*eA*dT*dT*d[5mC]*dA*d[5mC]*d[5mC]*dA*dG*dA*dA*eA*e[5mC]*eT*eG*eA) [compound 412197],% inhibition,[1],45%
412198 (antisense eT*eT*e[5mC]*eA*eG*dG*dA*d[5mC]*dA*d[5mC]*dA*dA*dG*dT*dA*eA*eA*e[5mC]*e[5mC]*eA) [compound 412198],% inhibition,[1],21%
412199 (antisense eT*eT*e[5mC]*eA*e[5mC]*dT*d[5mC]*dT*dT*dG*dG*d[5mC]*dA*dG*dT*eG*eT*eT*eT*e[5mC]) [compound 412199],% inhibition,[1],66%
412200 (antisense eA*eA*eG*eA*eA*dT*dA*d[5mC]*d[5mC]*d[5mC]*dA*dG*dA*dA*dA*eT*e[5mC]*eG*e[5mC]*eT) [compound 412200],% inhibition,[1],59%
412201 (antisense e[5mC]*eA*eT*eT*eG*d[5mC]*dT*dT*dG*dA*dA*dA*dG*dA*dA*eT*eA*e[5mC]*e[5mC]*e[5mC]) [compound 412201],% inhibition,[1],66%
412202 (antisense eT*eT*eG*eG*eT*dG*dT*dG*dA*dG*d[5mC]*dA*dT*dT*dG*e[5mC]*eT*eT*eG*eA) [compound 412202],% inhibition,[1],65%
412205 (antisense eG*eT*eT*eT*eA*dT*dG*d[5mC]*d[5mC]*d[5mC]*dT*dT*d[5mC]*dA*dT*eG*eT*e[5mC]*eT*eA) [compound 412205],% inhibition,[1],69%
412207 (antisense e[5mC]*eG*eT*eG*eA*dA*dA*dA*dA*dG*dT*dG*dG*d[5mC]*dA*eG*eT*eG*eG*eA) [compound 412207],% inhibition,[1],64%
412208 (antisense eA*eG*eA*e[5mC]*eA*dA*dA*dT*dG*dT*dT*dA*d[5mC]*dG*dA*eT*eG*e[5mC]*eT*e[5mC]) [compound 412208],% inhibition,[1],73%
412209 (antisense eG*eT*eG*e[5mC]*eT*dT*d[5mC]*dA*dG*dT*dA*dG*dA*d[5mC]*dA*eA*eA*eT*eG*eT) [compound 412209],% inhibition,[1],91%
412210 (antisense eT*eG*e[5mC]*eA*e[5mC]*dA*dG*dG*dA*dT*dT*dT*d[5mC]*dA*dG*eT*eG*eA*eA*eA) [compound 412210],% inhibition,[1],73%
412211 (antisense eG*eA*eT*eT*eA*dG*dA*dA*dA*dG*dT*dG*d[5mC]*dA*d[5mC]*eA*eG*eG*eA*eT) [compound 412211],% inhibition,[1],64%
412214 (antisense eT*e[5mC]*e[5mC]*eT*eG*dG*dG*dA*dA*dA*dA*dG*dA*dA*dG*eG*eT*eA*eA*eA) [compound 412214],% inhibition,[1],58%
412216 (antisense eA*eA*eA*eG*eA*dT*dT*dT*d[5mC]*dT*dT*dT*dG*dA*dG*eA*eT*eT*e[5mC]*eT) [compound 412216],% inhibition,[1],43%
412217 (antisense eA*eA*eT*e[5mC]*e[5mC]*dA*d[5mC]*dT*d[5mC]*dT*d[5mC]*dA*dG*dA*dT*eG*eT*eT*eT*eT) [compound 412217],% inhibition,[1],47%
412218 (antisense eA*eA*e[5mC]*e[5mC]*eA*dG*dA*dA*dA*dG*dA*dG*d[5mC]*dT*dT*eT*eG*e[5mC]*eT*e[5mC]) [compound 412218],% inhibition,[1],27%
412219 (antisense eG*eG*e[5mC]*eA*eG*dA*dA*d[5mC]*dA*d[5mC]*dT*dG*dG*dG*dA*eT*eG*e[5mC]*eT*eG) [compound 412219],% inhibition,[1],56%
412220 (antisense eT*eG*eG*eT*eA*dA*dA*dA*dT*dG*dA*dA*dG*dA*dA*eT*eG*eG*e[5mC]*eA) [compound 412220],% inhibition,[1],58%
412221 (antisense eA*eT*e[5mC]*eA*eG*dT*dG*dT*d[5mC]*dA*dT*dG*dG*dT*dA*eA*eA*eA*eT*eG) [compound 412221],% inhibition,[1],48%
416989 (antisense eG*eA*dG*dA*dT*dT*d[5mC]*dT*dT*dT*dG*dG*dG*d[5mC]*d[5mC]*eA*eT*eT*e[5mC]*e[5mC]) [compound 416989],IC50,[2],1300 nM
same,percent inhibition of Factor 11 at 0.7 μM,[2],32%
same,percent inhibition of Factor 11 at 2.2 μM,[2],65%
same,percent inhibition of Factor 11 at 6.7 μM,[2],88%
same,percent inhibition of Factor 11 at 20 μM,[2],94%
same,% inhibition,[3]; [5],88%
same,IC50,[4],26 nM
same,percent inhibition of Factor 11 at 9.375 nM,[4],18%
same,percent inhibition of Factor 11 at 18.75 nM,[4],41%
same,percent inhibition of Factor 11 at 37.5 nM,[4],62%
same,percent inhibition of Factor 11 at 75 nM,[4],83%
416993 (antisense e[5mC]*eT*dT*dT*dG*dA*dG*dA*dT*dT*d[5mC]*dT*dT*dT*dG*eG*eG*e[5mC]*e[5mC]*eA) [compound 416993],IC50,[2],2200 nM
same,percent inhibition of Factor 11 at 0.7 μM,[2],22%
same,percent inhibition of Factor 11 at 2.2 μM,[2],48%
same,percent inhibition of Factor 11 at 6.7 μM,[2],87%
same,percent inhibition of Factor 11 at 20 μM,[2],92%
same,% inhibition,[3]; [5],91%
same,IC50,[4],36 nM
same,percent inhibition of Factor 11 at 9.375 nM,[4],15%
same,percent inhibition of Factor 11 at 18.75 nM,[4],37%
same,percent inhibition of Factor 11 at 37.5 nM,[4],50%
same,percent inhibition of Factor 11 at 75 nM,[4],68%
417000 (antisense eT*eG*d[5mC]*dA*d[5mC]*dA*dG*dT*dT*dT*d[5mC]*dT*dG*dG*d[5mC]*eA*eG*eG*e[5mC]*e[5mC]) [compound 417000],IC50,[2],600 nM
same,percent inhibition of Factor 11 at 0.7 μM,[2],46%
same,percent inhibition of Factor 11 at 2.2 μM,[2],73%
same,percent inhibition of Factor 11 at 6.7 μM,[2],76%
same,percent inhibition of Factor 11 at 20 μM,[2],89%
same,% inhibition,[3]; gapmers targeted to nucleobases 1275 to 1318 of SEQ ID NO: 1,89%
same,IC50,[4],23 nM
same,percent inhibition of Factor 11 at 9.375 nM,[4],35%
same,percent inhibition of Factor 11 at 18.75 nM,[4],47%
same,percent inhibition of Factor 11 at 37.5 nM,[4],58%
same,percent inhibition of Factor 11 at 75 nM,[4],70%
